PMC10127606, “Salmonella Invasion Is Controlled by Competition among Intestinal Chemical Signals” (mBio, 2023)
Changes are numbered by the printed parent chain. Like-named read-outs stand apart in the source and are kept apart here.

Legend:
[1] = system: invasion gene hilA expression; assay: hilA-luxCDABE transcriptional reporter luciferase assay; type: cell-based; details: no formic acid preincubation; 500 nM c2-HDA, 40 μM oleic acid, 10 mM propionic acid
Experimental: Salmonella strains carrying luxCDABE reporter plasmids were grown overnight in 5 mL LB broth with appropriate antibiotics. These were subcultured (1:100) in M9 minimal medium with 0.2% glucose and antibiotics for 16 h. […] These were incubated for 3 h at 37°C in an incubator without aeration. Dimethyl sulfoxide (DMSO) or different concentrations of fatty acids were added to the reaction, and replicate aliquots were introduced into the BioTek Synergy H1 microplate reader. Luminescence and OD600 were recorded every half-hour for 24 h. Data were analyzed in GraphPad Prism. For every treatment, the area under the curve (AUC) was calculated. DMSO was normalized to 100%, and other reactions were calculated accordingly.

HilD [2] = target: T1, HilD (Salmonella typhimurium, UniProt P0CL08); assay: biochemical; type: binding; parameters: made in house; host or cells: E. coli BL21(DE3), pET15b
T1 sequence (P0CL08 1-309): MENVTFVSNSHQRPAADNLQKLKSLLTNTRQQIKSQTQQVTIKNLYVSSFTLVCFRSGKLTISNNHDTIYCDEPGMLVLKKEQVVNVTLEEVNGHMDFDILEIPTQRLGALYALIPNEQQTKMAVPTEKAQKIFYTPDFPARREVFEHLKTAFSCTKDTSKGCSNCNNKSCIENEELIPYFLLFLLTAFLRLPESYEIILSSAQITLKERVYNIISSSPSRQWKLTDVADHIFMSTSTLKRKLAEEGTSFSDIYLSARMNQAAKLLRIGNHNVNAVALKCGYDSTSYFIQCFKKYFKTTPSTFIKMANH
Experimental: (§1) Assays were performed as previously described in detail in Chowdhury et al. ([15], [16]). Briefly, 96-well polystyrene plates coated with various concentrations of fatty acids in coating buffer (0.05 M sodium carbonate-bicarbonate, pH 9.3) were incubated overnight at 4°C. The wells were washed three times with PBS, followed by the addition of 200 μL blocking buffer (1% Ficoll 400 in PBS). […] The wells were washed, incubated with a 1:1,000 dilution of anti-His tag antibody, and incubated at room temperature for an hour. After washing, the wells were incubated with a 1:5,000 dilution of anti-mouse secondary antibody for an hour. Finally, the wells were washed three times with PBS-T (PBS plus 0.1% Tween 20), and 100 μL OPD (o-phenylenediamine) substrate was added. After color development, the reaction was ended with 1 N sulfuric acid and read spectrophotometrically at 490 nm. Data were analyzed in GraphPad Prism. Nonlinear regression was plotted, and one-site total binding was performed to calculate Kd values.
hilD alleles were cloned into pET15b(+), expressed, and purified as described in detail previously ([15]). Briefly, the pET15b-6XHis-hilD or pET15b-6XHis-hilD^Q290A or pET15b-6XHis-hilD^K293A plasmid was transformed into E. coli BL21(DE3) for expression. Transformants were induced with 5 mM IPTG (isopropyl β-D-1-thiogalactopyranoside) for 4 h. Cultures were centrifuged, lysed, treated with TALON beads, and applied to protein purification columns. Bound protein was eluted and confirmed by SDS-PAGE. Following confirmation, eluted samples were dialyzed overnight. The final protein concentration and quality after dialysis were assessed by Bradford estimation and SDS-PAGE.

[3] = system: invasion gene sipC expression; assay: sipC::lacZY reporter β-galactosidase assay; type: cell-based; details: no formic acid preincubation; 10 μM c2-HDA, 40 μM oleic acid
Experimental: The β-galactosidase assay was performed using the method of Miller, as previously described in detail ([39]). Miller units were calculated using the following equation: Miller units = (OD420 × 1,000)/(OD600 × t × v), where t is the time (minutes) the reaction was allowed to continue before adding the stop solution, v is the volume of culture (mL) assayed, and OD420 and OD600 are the densities of the cultures at 420 and 600 nm, respectively. All reactions were performed in quadruplicates. Data were analyzed in Excel and plotted in GraphPad Prism.

HilD-hilA complex = target: T2, HilD-hilA complex (Salmonella typhimurium, UniProt P0CL08); assay: EMSA of HilD binding to hilA promoter DNA; details: c2-HDA 20 μM, t2-HDA 40 μM, oleic acid 50 μM; no formic acid
T2 construct: made in house; host or cells: E. coli BL21(DE3), pET15b
T2 sequence (P0CL08 1-309): T1 sequence (P0CL08 1-309)
Experimental: Assays were performed as previously described ([15], [16]). […] Various concentrations of the fatty acids (c2-HDA, 20 μM; t2-HDA, 40 μM; or oleic acid, 50 μM) or control solvents were added, and the reaction was incubated at room temperature for 1 h. Dye solution (10 mM Tris, 1 mM EDTA, 50% vol/vol glycerol, 0.001% wt/vol bromophenol blue) was added to a final concentration of 1×, and samples were separated on 7% acrylamide gels. DNA was stained using SYBR Safe and visualized in a Bio-Rad GelDoc imaging system.

HilD^Q290A = target: T3, HilD^Q290A (Salmonella typhimurium, UniProt P0CL08, Q290A); assay: ELISA binding of fatty acids to mutant HilD^Q290A
T3 construct: made in house; host or cells: E. coli BL21(DE3), pET15b
T3 sequence (P0CL08 1-309 Q290A): T1 sequence (P0CL08 1-309) with Q290A
Experimental: as §1
(§2) hilD alleles were cloned into pET15b(+), expressed, and purified as described in detail previously ([15]). Briefly, the pET15b-6XHis-hilD or pET15b-6XHis-hilD^Q290A or pET15b-6XHis-hilD^K293A plasmid was transformed into E. coli BL21(DE3) for expression. […] The final protein concentration and quality after dialysis were assessed by Bradford estimation and SDS-PAGE.

HilD [4] = target: T1, HilD; type: cell-based; parameters: The stability of HilD in Salmonella carrying a chromosomal tetRA-hilD-3×FLAG tag; expressed in transfected cells; host or cells: Salmonella Typhimurium strain CA2446 (tetRA-hilD-3XFLAG attλ:pDX1::hilA'-lacZ)
Experimental: Assays were performed as previously described ([22]). Salmonella strains carrying a chromosomal tetracycline-inducible hilD with a C-terminal 3×FLAG tag and a hilA::lacZY fusion (for invasion gene expression assessment) were grown overnight in LB and then diluted 1:100 into LB buffered with 100 mM MOPS (pH 6.7) with 2.5 μg/mL tetracycline. […] After 1 h of incubation at 37°C with aeration, samples were collected to measure hilA::lacZY expression in a β-galactosidase assay. Individual cultures were then equilibrated to an OD600 of 1. New protein production was halted by adding an antibiotic combination (100 μg/mL rifampin, 200 μg/mL streptomycin, and 50 μg/mL spectinomycin). These cultures were incubated at 37°C with aeration, and 200-μL aliquots were collected every 30 min for 4 h. Samples were lysed in 5× Laemmli buffer, boiled, and immunoblotted with an anti-FLAG antibody to monitor HilD levels.

HilD^K293A = target: T4, HilD^K293A (Salmonella typhimurium, UniProt P0CL08, K293A); assay: ELISA binding of fatty acids to mutant HilD^K293A
T4 construct: made in house; host or cells: E. coli BL21(DE3), pET15b
T4 sequence (P0CL08 1-309 K293A): T1 sequence (P0CL08 1-309) with K293A
Experimental: as §1, §2

[5] = Kd, HilD preincubated with formic acid (500 μM)
[6] = Kd, HilD without formic acid preincubation
[7] = HilD preincubated with formic acid (500 μM), read-out: Kd
[8] = HilD without formic acid preincubation, read-out: Kd

`CCCCCCCCCCCCC/C=C\C(=O)O` [c2-HDA, cis-2-hexadecenoic acid] was tested, and the “effect on hilA expression” value [1] was “drastically reduced hilA expression”, the Kd (HilD [2]; [5]) was 82 µM and the Kd (HilD [2]; [6]) was 5.19 µM. For the same compound, the “effect on sipC expression” value [3] was “repressed”, the “effect on HilD-hilA complex” value (HilD-hilA complex) was “disrupted the HilD-hilA complex” and the Kd (HilD^Q290A) was 12.6 µM.
`CCCCCCCCCCCCCCCCC/C=C\C(=O)O` [c2-EA] gave a Kd (HilD [2]; [7]) of 381 µM and a Kd (HilD [2]; [8]) of 96.6 µM.
With `CCCCCCCCCCCCC/C=C/C(=O)O` [t2-HDA] the Kd (HilD [2]; [7]) was 177 µM, the Kd (HilD [2]; [8]) was 15.8 µM and the “effect on HilD-hilA complex” value (HilD-hilA complex) was “disrupted the HilD-hilA complex”. For the same compound, the HilD half-life (HilD [4]; fatty acid 20 μM after preincubation with formic acid (10 mM)) was ~ 127 min and the HilD half-life (HilD [4]; fatty acid 20 μM, no formic acid preincubation (DMSO control ~227 min)) was ~ 28 min.
With `CCC(=O)O` [propionic acid] the “effect on hilA expression” value [1] was “severely repressed”.
For `CCCCCCCC/C=C\CCCCCCCC(=O)O` [oleic acid], the Kd (HilD^K293A) was 119 µM, the “effect on hilA expression” value [1] was “severely repressed” and the Kd (HilD [2]; [5]) was 1370 µM. For the same compound, the Kd (HilD [2]; [6]) was 136 µM, the “effect on sipC expression” value [3] was “repressed” and the “effect on HilD-hilA complex” value (HilD-hilA complex) was “disrupted the HilD-hilA complex”.
